Data set [1] relates to RSV. The following applies: Lambert et al., 1996; read-out: EC50 reported previously; cited from earlier work.
Data set [2] has as its target T1, chymotrypsin (Bos taurus, UniProt P00766).
T1 construct: purchased Thermo Fisher Scientific
Kind of data set: Proteolytic stability assay, chymotrypsin. It is filed as in vitro ADME. Conditions: for half-life at 2.9 µM: chymotrypsin (isolated protease). How it is done:
(§1) The compounds according to the invention are tested for their stability in a proteolytic stability assay as described below which is an important parameter to assess for the development of peptide therapeutics. Peptides of the invention 4bb, 4ca, 4a and their unstapled comparative peptide 4, as well as both SAH-RSVFBD isomers were treated with chymotrypsin and trypsin, and analysed by LC/MS to quantify the reaction products over time.
(§2) In vitro proteolytic degradation was measured via LC-MS using an Agilent Infinity 1280 UHPLC system coupled to an Agilent quadruple-time-of-flight (QTOF) 6530 with an Agilent Jet Stream electrospray ionisation (AJS ESI) source (all Agilent Technologies, Waldbronn, Germany). 5 μl of digested sample were injected onto a C18 column (Zorbax Eclipse Plus RRHD, 1.8 μm, 2.1*100 mm, Agilent Technologies, Waldbronn, Germany) equilibrated with solvent A and eluted with a flow rate of 0.4 ml/min over a 5-95% gradient of solvent B in 5 minutes, followed by 1.5 minutes at 95% and 0.5 minutes post-time where solvent A was 95% water, 5% acetonitrile with 0.2% formic acid and solvent B was 5% water, 95% acetonitrile with 0.2% formic acid. The AJS ESI source was operated with a capillary voltage of 4000V and a nozzle voltage of 600V with a drying gas temperature of 325° C. and flow rate of 10 l/min, nebulising gas pressure of 20 psi, and a sheath gas temperature of 300° C. and flow rate of 11l/min. Mass spectra were acquired in the positive ion mode from 100-3200 m/z at a rate of 1 scan per second in extended dynamic range (2 GHz) mode. The fragmentor, skimmer and octopole Radio Frequency voltages were set to 200, 60 and 750 V respectively. Data were acquired and analysed with Agilent MassHunter Workstation (version B.05).
(§3) Peptide digestion was performed as it follows: 10 μl of peptide at 0.29 mM in 50/50 acetonitrile/water were dissolved in 990 μl 100 mM Tris-HCl, pH 8.0 with 10 mM CaCl2. Following measurement of the undigested (to) sample, 10 μl of chymotrypsin at 50 μg/ml in 100 mM Tris-HCl, pH 8.0 with 10 mM CaCl2 were added and the sample was vortexed and placed immediately in the autosampler, set to 25° C. Trypsin digestion was performed as with chymotrypsin except that the buffer was in 50 mM Tris-HCl, pH8. Chymotrypsin and trypsin were purchased from Thermo Fisher Scientific.
(§4) The level of intact peptide was quantified by serial injection over time. Integration of the intact peptide compound chromatogram was performed using the Agilent Molecular Feature Extraction (MFE) algorithm. A plot of the intact peptide MFE peak area over time gave an exponential decay curve, from which the half-life was determined using MatLab […].

The nature of data set [3]: CD spectroscopy, percentage of helicity. It is filed as physicochemical. Conditions: CD at 222 nm, 10 mM phosphate buffer pH 7.5, 50 μM peptide, 25° C. The method, boiled down:
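CD spectra were recorded at 25 °C on 50 μM peptide in 10 mM phosphate buffer, pH 7.5, from 180 to 260 nm, averaged over three scans and buffer-subtracted. Percent helicity was calculated from molar ellipticity at 222 nm, normalized to residue number and peptide concentration.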

Data set [4] relates to rHRSV-Luc. Kind of data set: In vivo rHRSV-Luc infection of mice, lung histological analysis. Conditions: intranasal peptide, day 7 pi. Details: species or system BALB/c mice. How it is done:
The efficacy of peptides of the invention is tested in the following model of rHRSV infection.
Female BALB/c mice around 8 weeks of age are purchased. Mice are bred in a pathogen-free animal facility. For infection experiments, mice will be housed in cages inside stainless steel isolation cabinets that are ventilated under negative pressure with high-efficiency particulate air-filtered air. Female BALB/c mice (n=5 per group) are anesthetized by a mixture of ketamine and xylazine (1 and 0.2 mg per mouse, respectively) and infected by intranasal inoculation with 50 μl of PBS containing 6.10^4 p.f.u. of rHRSV-Luc (Luc-encoding virus that enables direct visualization of RSV replication in living mice). Peptides of the invention are administered intranasally to the mice infected or uninfected with RSV-Luc, on day 0, 2 and 4 post-infection. Body weight and temperature is monitored at days 3-10. In vivo imaging is performed each two days on anesthetized mice. At day 8, mice are killed and the safety of the treatment is investigated by a complete toxicopathological evaluation of treated mice (histologic analysis of lungs with sections of each lobe, turbinates, heart, spleen, liver, kidneys).
At day 7 pi, a time corresponding to the end of the infection in mice, the animals were sacrificed and the lungs were collected in order to perform a histological analysis. […]

The subject of data set [5] is trypsin. Kind of data set: Proteolytic stability assay, trypsin. It is filed as in vitro ADME. Conditions: trypsin (isolated protease), pH 8, b240; read-out: half-life against trypsin (converted). How it is done:
as §1, §2, §3, §4

A short description of data set [6]: Proteolytic stability assay, trypsin. It is filed as in vitro ADME. Conditions: trypsin (isolated protease), pH 8; 50 mM Tris-HCl pH8, 25° C., LC-MS; read-out: t1/2 (min) Trypsin. How it is done: as §1, §2, §3, §4
The subject of data set [7] is recombinant green fluorescent protein (GFP)-expressing RSV virus (strain A2). In words: HRSV-eGFP inhibition assay (cellular viral fusion assay, A549 cells, flow cytometry). It is filed as cell-based. How it is done:
The inhibitory activity of the peptides of the invention was assessed in a cellular viral fusion assay as compared to comparative peptides as follows. A549 cells were infected with a recombinant green fluorescent protein (GFP)-expressing RSV virus (strain A2) obtained as described below and in Hallak et al., 2000, Virology, 271:264-275, and the inhibitory activity of the peptides was quantified by flow cytometry.
Following rapid thawing of the frozen eGFP encoding RSV virus at […], the virus was vortexed for 2 min, and pipetted up and down to break aggregates. Serial 4-fold dilutions of inhibitors were prepared in glass tubes and mixed with a volume of virus required to achieve approximately 50% of infection in 200 μl of media containing 2% of FCS. The resulting mixture was added to 24-well plates containing A549 cells. Cells were incubated for 2 hours at 37° C., the media was replaced, and cells were incubated for an additional 24 hours. Cells were treated with 300 μl of trypsin for 10 min at 37° C., and the detached cells were diluted in 1 ml of culture medium. Following centrifugation at 1′700 rpm, the pellet was resuspended in 300 μl of PBS+1% SBF (V/V) and GFP positive cells were counted by FACS analysis.
Background: A flow cytometer gives signals particle by particle.

Data set [8] relates to RSV. The following applies: DeVincenzo et al., 2014; cited from earlier work.

Where two headings read alike, the source gives them in different places. Bridge positions count the residues as written; N and C are the ends. Square brackets hold non-standard residues; d marks the D form. Peptide text beside a SMILES is read from it. R8 = C=CCCCCCC[C@@](C)(N)C(=O)O; R5 = C=CCCC[C@@](C)(N)C(=O)O; S5 = C=CCCC[C@](C)(N)C(=O)O

Usually EC50 stands for the midpoint of the concentration-response curve.

As for “Ac-YDPLVFPSDEFDASISQVNEKINQSLAFIRKSDEL-NH2 (N-terminus and C-terminus assumed) [Peptide T108]”, in data set [1], the half-maximal effective concentration (EC50) was 1480 nM.
For the compound `CC[C@H](C)[C@@H]1NC(=O)[C@H](Cc2ccccc2)NC(=O)[C@@](C)(NC(=O)[C@H](CC(C)C)NC(=O)[C@H](CO)NC(=O)[C@]2(C)CCCC=CCCC[C@@](C)(NC(=O)[C@H](CCC(=O)O)NC(C)=O)C(=O)N[C@@H]([C@@H](C)CC)C(=O)N[C@@H](CC(N)=O)C(=O)N2)CCCC=CCCC[C@@](C)(C(=O)N[C@@H](CO)C(=O)N[C@@H](CC(=O)O)C(=O)N[C@@H](CCC(=O)O)C(=O)N[C@@H](CC(C)C)C(=O)N[C@@H](CC(C)C)C(=O)N[C@@H](Cc2c[nH]cn2)C(=O)N[C@@H](CC(N)=O)C(=O)N[C@H](C(N)=O)C(C)C)NC(=O)[C@H](CCCNC(=N)N)NC1=O` [Peptide 4ca] (Ac-E[R5]IN[S5]SL[S5]FIR[S5]SDELLHNV-NH2; staple 2-5, 8-12), the half-life at 2.9 µM in data set [2] (pH 8, b240, read-out: half-life against chymotrypsin (converted)) is 10800 min. Further, the “% helicity” value in data set [3] is over 100%. Besides, in data set [4], the “histological changes in the lung parenchyma, mock versus peptide inoculated animals (toxicity)” value is recorded as “No histological changes were noticed” and the “interstitial pneumonia after infection by RSV, lung histology” value was “no interstitial pneumonia was observed”. In data set [5], the half-life at 2.9 µM was 2280 min.
Consider “Ac-EKINQSLAFIRKSDELLHNV-NH2 (N-terminus and C-terminus assumed) [Peptide 4, reference compound]”, for which the half-life at 2.9 µM in data set [2] (100 mM Tris-HCl pH 8.0, 10 mM CaCl2, 25° C., LC-MS, read-out: t1/2 (min) Chymotrypsin) came to 4.5 min. The “time to full degradation” value in data set [2] (treated with chymotrypsin and trypsin) is recorded as 10 min. For the same compound, in data set [6], the half-life was found to be 5 min.
With `CC[C@H](C)[C@H](NC(=O)[C@H](Cc1ccccc1)NC(=O)[C@]1(C)CCCC=CCCC[C@](C)(NC(=O)[C@@H](NC(=O)[C@H](CCCCN)NC(=O)[C@H](CCC(=O)O)NC(C)=O)[C@@H](C)CC)C(=O)N[C@@H](CCC(N)=O)C(=O)N[C@@H](CO)C(=O)N[C@@H](CC(C)C)C(=O)N1)C(=O)N[C@@H](CCCNC(=N)N)C(=O)N[C@]1(C)CCCCCCC=CCCC[C@@](C)(C(=O)N[C@H](C(N)=O)C(C)C)NC(=O)[C@H](Cc2c[nH]cn2)NC(=O)[C@H](CC(C)C)NC(=O)[C@H](CC(C)C)NC(=O)[C@H](CCC(=O)O)NC(=O)[C@H](CC(=O)O)NC(=O)[C@H](CO)NC1=O` [Peptide 4bf, EKI X500 QSL X504 FIR 8508 SDELLH X515V, reference compound] (Ac-EKI[S5]QSL[S5]FIR[R8]SDELLH[S5]V-NH2; staple 4-8, 12-19 (inferred)), in data set [3], the “% helicity” value is given as over 100%. The “inhibitory activity in cellular viral fusion assay” value in data set [7] is “inactive”.
For the compound `Cc1cn2nc([C@@H]3CCCCN3C(=O)c3cc(Cl)ccc3NS(C)(=O)=O)cc2nc1N1CC[C@H](N)C1` [GS-5806], the EC50 in data set [8] was 0.4 nM.
